Numbered stars: 1 amine (or outer) side, 2 acyl side, 3 side chain; on linkers, the order of the positions; unused ones are H or OH. Square brackets hold non-standard residues; d marks the D form. Side chains are listed from the residue outwards. Peptide text beside a SMILES is read from it. * marks the point of attachment. C18 diacid = O=C(O)CCCCCCCCCCCCCCCCC(=O)*; γGlu = O=C(O)[C@H](CCC(=O)[*:2])N[*:1]; AEEA = NCCOCCOCC(=O)O; Aib = CC(C)(N)C(=O)O
Molecular target: T1, human GLP-1 receptor (Homo sapiens, UniProt P43220)
T1 construct: expressed in transfected cells; host or cells: BHK cells (parent BHKTS13), clone FCW467-12A/KZ10-1, with CRE luciferase
T1 sequence (P43220 24-463): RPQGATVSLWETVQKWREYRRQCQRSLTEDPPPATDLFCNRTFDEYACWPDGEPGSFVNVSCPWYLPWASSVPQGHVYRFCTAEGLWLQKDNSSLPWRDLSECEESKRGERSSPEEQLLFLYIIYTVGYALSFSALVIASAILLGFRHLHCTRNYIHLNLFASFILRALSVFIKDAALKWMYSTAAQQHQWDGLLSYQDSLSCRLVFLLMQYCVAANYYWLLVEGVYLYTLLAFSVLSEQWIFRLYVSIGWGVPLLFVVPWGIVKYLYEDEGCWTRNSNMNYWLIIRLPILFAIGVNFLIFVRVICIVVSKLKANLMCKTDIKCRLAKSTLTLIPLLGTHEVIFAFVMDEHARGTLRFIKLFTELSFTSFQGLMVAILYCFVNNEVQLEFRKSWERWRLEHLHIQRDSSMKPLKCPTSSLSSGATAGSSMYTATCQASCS
Assay: GLP-1 receptor potency, CRE luciferase reporter gene assay in BHK cells
Assay type: cell-based
Settings: BHK cells expressing human GLP-1 receptor, read-out: EC50 GLP-1R
Method in brief: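 Potency as cAMP-driven firefly luciferase signal after 3 h, 37° C exposure to 10-fold dilutions (final 1×10EE-13–1×10EE-6 M). Stable hGLP-1R/CRE-luc BHK clone, 5×10EE3 cells/well, medium containing 2% ovalbumin and 0.2% Pluronic F-68; EC50 (pM) from variable-slope non-linear regression.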

Row | EC50 | SMILES
1 | 2.7 pM | CC(C)C[C@H](NC(=O)[C@H](CC(C)C)NC(=O)[C@H](Cc1c[nH]c2ccccc12)NC(=O)[C@H](CCC(N)=O)NC(=O)[C@@H](NC(=O)[C@H](Cc1ccccc1)NC(=O)[C@H](CCC(=O)O)NC(=O)[C@H](CCCNC(=N)N)NC(=O)[C@H](C)NC(=O)[C@H](CCCNC(=N)N)NC(=O)[C@H](CCCNC(=N)N)NC(=O)[C@H](CO)NC(=O)[C@H](CCC(=O)O)NC(=O)[C@H](CC(C)C)NC(=O)[C@H](Cc1ccc(O)cc1)NC(=O)[C@H](CCCCN)NC(=O)[C@H](CO)NC(=O)[C@H](CC(C)C)NC(=O)[C@H](CC(=O)O)NC(=O)[C@H](CO)NC(=O)[C@@H](NC(=O)[C@H](Cc1ccccc1)NC(=O)[C@@H](NC(=O)CNC(=O)[C@H](CCC(N)=O)NC(=O)C(C)(C)NC(=O)[C@@H](N)Cc1c[nH]cn1)[C@@H](C)O)[C@@H](C)O)C(C)C)C(=O)N[C@@H](CC(N)=O)C(=O)N[C@@H](CCCCNC(=O)CC[C@H](NC(=O)COCCOCCNC(=O)COCCOCCNC(=O)CC[C@H](NC(=O)CC[C@H](NC(=O)CCCCCCCCCCCCCCCCC(=O)O)C(=O)O)C(=O)O)C(=O)O)C(N)=O [Example 21, N^ε29-[(4S)-4-carboxy-4-[[2-[2-[2-[[2-[2-[2-[[(4S)-4-carboxy-4-[[(4S)-4-carboxy-4-(17-carboxyheptadecanoylamino)butanoyl]amino]butanoyl]amino]ethoxy]ethoxy]acetyl]amino]ethoxy]ethoxy]acetyl]amino]butanoyl]-[Aib2,Leu10,Glu15,Arg20,Glu21,Leu27,Lys29]-Glucagon amide] (H-H[Aib]QGTFTSDLSKYLESRRAREFVQWLLNK([γGlu-AEEA-AEEA-γGlu-γGlu-C18 diacid])-NH2; N-terminus assumed)
2 | 4.1 pM | CC(C)C[C@H](NC(=O)[C@H](Cc1ccc(O)cc1)NC(=O)[C@H](CCCCN)NC(=O)[C@H](CO)NC(=O)[C@H](CC(C)C)NC(=O)[C@H](CC(=O)O)NC(=O)[C@H](CO)NC(=O)[C@@H](NC(=O)[C@H](Cc1ccccc1)NC(=O)[C@@H](NC(=O)CNC(=O)[C@H](Cc1c[nH]cn1)NC(=O)C(C)(C)NC(=O)[C@@H](N)Cc1c[nH]cn1)[C@@H](C)O)[C@@H](C)O)C(=O)N[C@@H](CCC(=O)O)C(=O)N[C@@H](CO)C(=O)N[C@@H](CCCCN)C(=O)N[C@@H](CCCNC(=N)N)C(=O)N[C@@H](C)C(=O)N[C@@H](CCCNC(=N)N)C(=O)N[C@@H](CCC(=O)O)C(=O)N[C@@H](Cc1ccccc1)C(=O)N[C@H](C(=O)N[C@@H](CCC(N)=O)C(=O)N[C@@H](Cc1c[nH]c2ccccc12)C(=O)N[C@@H](CC(C)C)C(=O)N[C@@H](CC(C)C)C(=O)N[C@@H](CCCCNC(=O)CC[C@H](NC(=O)CC[C@H](NC(=O)COCCOCCNC(=O)COCCOCCNC(=O)CC[C@H](NC(=O)CCCCCCCCCCCCCCCCC(=O)O)C(=O)O)C(=O)O)C(=O)O)C(=O)N[C@H](C(N)=O)[C@@H](C)O)C(C)C [Example 27, N^ε28-[(4S)-4-carboxy-4-[[(4S)-4-carboxy-4-[[2-[2-[2-[[2-[2-[2-[[(4S)-4-carboxy-4-(17-carboxyheptadecanoylamino)butanoyl]amino]ethoxy]ethoxy]acetyl]amino]ethoxy]ethoxy]acetyl]amino]butanoyl]amino]butanoyl]-[Aib2,His3,Leu10,Glu15,Lys17,Arg20,Glu21,Leu27, Lys28]-Glucagon amide] (H-H[Aib]HGTFTSDLSKYLESKRAREFVQWLLK([γGlu-γGlu-AEEA-AEEA-γGlu-C18 diacid])T-NH2; N-terminus assumed)

Reference: US9474790B2, “Stable, protracted GLP-1/glucagon receptor co-agonists for medical use” (Novo Nordisk A/S, priority 2013, dated 2016)
